Assay results as given in patent US20100035868A1, “METHODS OF TREATMENT OF UTERINE PATHOLOGICAL CONDITIONS” (MEDICAL RESEARCH COUNCIL, priority 2001, published 2010).
Read-outs that look alike come from different tables or passages of the source.

Tests used:
[1] = tested on: EP2/EP4 receptors; assay: cAMP generation in cultured endometrial adenocarcinoma tissue after PGE2 stimulation; assay type: cell-based, human; conditions: endometrial adenocarcinoma tissue (n=6), 300 nM PGE2 for 5 min, IBMX 1 mM; treated/untreated
Procedure: (§1) In vitro culture and cAMP measurement. Endometrial tumour tissue (n=6; two well, two moderately and two poorly differentiated adenocarcinomas) and normal secretory phase endometrium (n=6) were minced finely with scissors and incubated in 2 ml RPMI (Sigma) medium containing 10% fetal calf serum, 0.3 mg/ml L-glutamine, 100 IU penicillin, 100 μg streptomycin and 3 μg/ml indomethacin, for 1.5 hrs at 37C in humidified 5% CO2. Thereafter samples were incubated in the same medium containing IBMX (Sigma) to a final concentration of 1 mM for 30 min at 37C and then stimulated for 5 min with 300 nM PGE2. Control treatments received no PGE2. Tissue was harvested by centrifugation at 2000 g. The supernatant was discarded and the tissue homogenised in 0.1 M HCl. cAMP concentration was quantified by ELISA using a cAMP kit (Biomol; Affiniti, Exeter, UK) and normalised to protein concentration of the homogenate. Protein concentrations were determined using protein assay kits (Bio-Rad, Hemel Hempstead, UK). The data are presented as fold induction of cAMP following treatment with PGE2. Fold induction was calculated by dividing cAMP values for the PGE2-treated samples by the value for the untreated sample.

[2] = tested on: EP2/EP4 receptors; assay: cAMP generation in cultured normal secretory phase endometrium after PGE2 stimulation; assay type: cell-based, human; conditions: normal secretory phase endometrium (n=6), 300 nM PGE2 for 5 min, IBMX 1 mM; treated/untreated
Procedure: as §1

[3] = biological target: T1, COX-2 (Homo sapiens, UniProt P35354); conditions: cited from earlier work
T1 sequence (P35354 18-604): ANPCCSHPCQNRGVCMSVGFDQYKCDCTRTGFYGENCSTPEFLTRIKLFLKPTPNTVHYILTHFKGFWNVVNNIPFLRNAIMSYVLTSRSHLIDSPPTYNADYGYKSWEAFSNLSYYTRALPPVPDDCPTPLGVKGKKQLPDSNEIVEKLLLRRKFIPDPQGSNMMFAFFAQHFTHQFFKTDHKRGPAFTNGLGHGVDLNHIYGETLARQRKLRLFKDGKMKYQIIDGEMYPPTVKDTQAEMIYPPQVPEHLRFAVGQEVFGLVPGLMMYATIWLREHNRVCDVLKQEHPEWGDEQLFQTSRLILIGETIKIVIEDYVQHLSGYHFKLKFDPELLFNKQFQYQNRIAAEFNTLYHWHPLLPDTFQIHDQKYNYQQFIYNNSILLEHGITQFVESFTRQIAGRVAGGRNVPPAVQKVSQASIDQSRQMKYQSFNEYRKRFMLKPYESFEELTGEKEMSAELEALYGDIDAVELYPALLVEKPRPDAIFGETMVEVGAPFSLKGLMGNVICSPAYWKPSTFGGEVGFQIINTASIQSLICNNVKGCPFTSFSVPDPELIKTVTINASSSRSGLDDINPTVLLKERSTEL

## CCCCC[C@H](O)/C=C/[C@H]1[C@H](O)CC(=O)[C@@H]1C/C=C\CCCC(=O)O [PGE2, prostaglandin E2]
[1]
  fold induction of cAMP generation in response to PGE2: 3.42±0.46
[2]
  fold induction of cAMP generation in response to PGE2: 1.15±0.05

## CS(=O)(=O)Nc1cc2c(cc1Sc1ccc(F)cc1F)C(=O)CC2 [L 475 L337]
[3]; COX-2 versus COX-1
  more specific for COX-2 inhibition than for COX-1 inhibition: 500 fold

## CS(=O)(=O)Nc1ccc([N+](=O)[O-])cc1Oc1ccccc1 [Nimesulide, N-(4-nitro-2-phenoxyphenyl)methane sulfonamide]
[3]
  more specific for COX-2 inhibition than for COX-1 inhibition: 100 fold
